Laboratory results as given in PMC10119930, “Dual Molecules Targeting 5-HT6 and GABA-A Receptors as a New Approach to Combat Depression Associated with Neuroinflammation” (ACS Chemical Neuroscience, 2023).

Tests used:
[1] = Chemical stability assay in PBS; format: physicochemical
Procedure: The quantitative HPLC analyses were acquired using Waters Alliance e2695 separations module (Waters, Milford, CT, USA) containing 2998 photodiode array (PDA), a detector (Waters, Milford, CT, USA), and the SpeedROD RP-18e 50–4.6 mm column (Merck, KGaA, Darmstadt, Germany). The temperature of the column was preserved at 30 °C. […] Each sample was injected at a volume of 10 μL in triplicate. […] The stock solutions were mixed with methanol and diluted, resulting in various solutions with concentrations ranging from 1.0 to 0.125 μg/mL. These solutions were then utilized to generate calibration curves by plotting AUC versus concentration in μg/mL. The examined molecules (2 mg) were dissolved in 1 mL of Dulbecco’s phosphate buffered saline (DPBS). The mixture was then continuously agitated at 22 °C for 24 h using a thermoshaker. Following this period, the mixtures were filtered through a cellulose acetate syringe filter (with a pore size of 0.22 μm), moved to a chromatographic vial, and analyzed. To quantify the investigated compounds, the areas beneath their respective peaks on DAD chromatograms were employed. Solubility was calculated using the calibration curves. Chemical stability assay: Stock solution of 16 in DMSO (10 mg/mL) was used. Next, 25 μL of stock solution was mixed with 975 μL of PBS (Dulbecco’s phosphate-buffered saline, Sigma, Poland). […] HPLC analyses were used to quantify the percentage of molecules that remained at each time point relative to the 0 min time point. Brain tissue stability assay: […] Then, 50 μL of the stock solution was combined with 50 μL of ice-cold 50 mM Tris-HCl buffer (pH 7.4) and 150 μL of brain homogenate (suspended in 20 volumes of 50 mM Tris-HCl buffer, ice cold, pH 7.4). The mix was then incubated at 37 °C and quenched at several time points. To terminate the reaction mixture, 250 μL of the appropriate reaction mixture was mixed with 1000 μL of MeCM in the Eppendorf Tube. Following 10 min of shaking (1500 rpm), samples were centrifuged (10 000 rpm, 10 min, 4 °C) and the acquired supernatant was collected. Before conducting HPLC analysis, the supernatant was filtered via a cellulose acetate syringe filter with a pore size of 0.45 μm and then transferred to a chromatographic vial. HPLC analysis was used to determine the percentage of the tested molecule remaining at each time point, relative to the 0 min time point. Plasma stability assay was performed as described previously.[45] Frozen rat plasma (Wistar) was thawed. […] The samples were collected at relative time points. The reaction was terminated by adding 1200 of μL acetonitrile/methanol mixture (50:50, v/v). The samples were centrifuge at 25 000 rpm for 10 min. HPLC analysis was used to determine the percentage of the tested molecule remaining at each time point relative to the 0 min time point. All the experiments were performed in duplicate.

[2] = Stability under radioligand binding assay conditions (incubation with brain tissue); format: in vitro ADME; conditions: after 1 h of incubation with brain tissue
BV-2 microglia cells = assay: Anti-inflammatory assessment in LPS-stimulated BV-2 cells (NO, ROS, IL-6, TNF-α); format: cell-based, mouse; conditions: 10 μM pretreatment 1 h, then LPS 18 h
Procedure: Mouse microglial (BV-2) cell line was a generous gift from Prof. Bożena Kamińska-Kaczmarek of the Nencki Institute of Experimental Biology, Polish Academy of Sciences, Warsaw, Poland. The cell culture medium: Dulbecco’s modified with high glucose (DMEM, Glutamx ThermoFisher) and supplemented with 10% inactivated fetal bovine serum heat (ThermoFisher), 100 IU/mL penicillin (Merck) and 100 μg/mL streptomycin (Merck). Cell culture conditions: culture flasks (area 175 cm^2, Nunc), temperature of 37 °C, 5% CO2. For the assessment of the effect of tested compounds on the quantities of reactive oxygen species, nitric oxide, and inflammatory markers, the BV-2 cells were positioned in a 96-well culture plate (5 × 10^4 cells per well, Falcon). In the case of cell membrane damage assay, a 96-well culture plate (2 × 10^4 cells per well, Falcon) was used. The cells were cultured in the incubator (37 °C, 5% CO2) for 24 h prior to the assay. The tested compounds were dissolved in DMSO to achieve the concentration of 10^–2 M. Serial dilutions of the compounds were prepared in PBS and added directly to the medium containing adherent cells. The resulting mixtures were examined for any evidence of precipitation or opalescence before the assay. BV-2 cells were incubated with selected molecules (6, 16 at a concentration of 10 μM) during 1 h. Subsequently, lipopolysaccharide (100 ng/mL) was added and the resulting mixture was incubated for 18 h. Next, the culture supernatant was collected to measure the levels of nitric oxide (NO), reactive oxygen species (ROS), IL-6, and TNF-α according to the procedures described in detail below. All experiments were performed in duplicates, in three independent experiments.
The quantities of NO produced by the cells were determined using DAN reagent (2,3-diaminonaphthalene), rendering the method protocol described by Nussler et al.[48] After incubating at room temperature for 15 min, the fluorescence intensity (EX 360; EM 440 nm) was measured using a microplate reader POLARstar Omega from BMG Labtech. The amounts of NO were then calculated as a percentage of the control (which represents the maximal response of LPS). ROS measurement. The fluorescent dye 2,7-dichlorodihydrofluorescein diacetate (DCFH-DA)[49] was utilized to determine the quantity of ROS released by BV-2 cells. After a 30 min incubation period at 37 °C with 10 μM DCFH-DA, the fluorescence intensity (EX 490; EM 520 nm) was examined using a microplate reader POLARstar Omega from BMG Labtech. The amounts of ROS were then expressed as a percentage of the control (which represents the maximal response of LPS). The IL-6 and TNF-α levels detected in the culture supernatants were quantified using LANCE Ultra TR-FRET detection kit (PerkinElmer), rendering the manufacturer’s procedure. The detection of IL-6 and TNF-α was performed independently in a 384-well plate according to the instructions provided. To each well of the plate, 15 μL of sample was added followed by the addition of 5 μL of premixed antibody solution. After incubating IL-6 for 1 h and TNF-α for 3 h in the absence of light, at 22 °C, the plates were transferred to an EnVision plate reader (PerkinElmer). Measurements were conducted at 320 nm wavelength for excitation, at 615 nm for donor emission, and at 660 nm for acceptor emission. The final data were determined as the ratio of the 660 nm signal to the 615 nm signal. The results represent the levels of each cytokine determined as a percentage of control (considered as maximal cell response to LPS). The GraphPad program was used to conduct statistical analysis, with all outcomes presented as mean values with standard deviation (SD). Differences between groups were assessed using one-way ANOVA, followed by post hoc analysis (Dunnett’s multiple comparison tests). Results were considered statistically significant if the p-value was less than 0.05. […]

## Cc1c(OCc2ccccc2)cccc1N1CCN(CCOC(=O)CCCN)CC1.Cl.Cl [Compound 16, 1-(2-((4-Ammoniobutanoyl)oxy)ethyl)-4-(3-(benzyloxy)-2-methylphenyl)piperazin-1-ium Dichloride]
[1]; 0 min
  % compound remaining, rt: 100 ± 0.2%
[1]; 15 min
  % compound remaining, rt: 98.43 ± 1.8%
[1]; 30 min
  % compound remaining, rt: 94.23 ± 1.8%
[1]; 60 min
  % compound remaining, rt: 92.46 ± 2.2%
[1]; 120 min
  % compound remaining, rt: 86.63 ± 2.3%
[1]; 240 min
  % compound remaining, rt: 62.21 ± 1.7%
[2]
  % of the compound remaining: 98.21%
BV-2 microglia cells
  LPS-induced IL-6 production: significantly decreased
  LPS-induced NO production: significantly decreased
  LPS-induced ROS production: significantly decreased
  LPS-induced TNF-α production: significantly decreased
